Results published in patent US6057419A, “Cascade polymer complexes, process for producing the same and pharmaceuticals containing the same” (Schering Aktiengesellschaft, priority 1995, dated 2000).

How the values were obtained:
[1] = cited from earlier work
[2] = in vivo; cited from earlier work
[3] = excretion tests in rats; cited from earlier work
[4] = In vivo comparison with an extracellular contrast medium: blood concentrations and pharmacokinetics in rats (ICP-AES, Topfit program); conditions: rats (n=3), i.v.
Procedure: The suitability of the compound described in Example 1l as a blood-pool agent is shown in the following test.
As test animals, three male (Schering-SPF) rats that are 200-250 g in weight are used. 0.2 ml (respectively 25 mmol/L) of the following contrast medium solution per animal is administered intravenously: mixture of 1 part each of the compound of 1l, named compound 1 below, and the dysprosium complex of 3,6,9-triaza-3,6,9-tris(carboxymethyl)-undecanedioicacid (Dy-DTPA), named compound 2 below. Blood samples are taken with a catheter in the common carotid artery at the following times: 1, 3, 5, 10, 15, 20, 30, 45, 60, 90, 120 minutes p.i. In the blood samples obtained, the concentrations of gadolinium (Gd) and dysprosium (Dy) are measured with the aid of atomic emission spectrometry (ICP-AES) in each case in a parallel manner. The portion of the injected contrast medium of compound 1 (Gd) and compound 2 (Dy, comparison substance), remaining in the blood space, can be compared in the same animals by the different marking. The a- and b-half-lives, the volume of distribution as well as the total clearance can be calculated from the blood concentrations with the aid of special software (Topfit program).
Measured blood concentrations of Gd (compound 1) and Dy (compound 2) in rats (n=3)

## albumin-GdDTPA
[1]; 24 h after intravenous injection in rats
  concentration in the liver tissue: ~30 % of the dose
[1]; in 24 hours, rats, i.v.
  dose eliminated: 20 % of the dose

## CC(O)CN1CCN(CC(=O)[O-])CCN(CC(=O)[O-])CCN(CC(=O)[O-])CC1.[Gd+3] (stereo not shown) [Pro Hance]
[2]
  dispersion space (entire extracellular space: intravascular space and interstitium): about 20 % of the volume of the body

## polylysine-GdDTPA
[3]
  excretion (in words): excreted unchanged by glomerular filtration through the kidneys

## dysprosium complex of 3,6,9-triaza-3,6,9-tris(carboxymethyl)-undecanedioicacid [Compound 2, reference compound]
[4]
  Vd ss (volume of distribution): 0.41 ± 0.04 L/kg
[4]; blood
  α-t1/2: 1.5 ± 0.5 min
  β-t1/2: 19.2 ± 2.5 min

## CNC[C@H](O)[C@@H](O)[C@H](O)[C@H](O)CO.CNC[C@H](O)[C@@H](O)[C@H](O)[C@H](O)CO.O=C([O-])CN(CCN(CC(=O)[O-])CC(=O)O)CCN(CC(=O)[O-])CC(=O)O.[Gd+3] [Magnevist]
[2]
  dispersion space (entire extracellular space: intravascular space and interstitium): about 20 % of the volume of the body

## CNC(=O)CN(CCN(CCN(CC(=O)[O-])CC(=O)NC)CC(=O)[O-])CC(=O)[O-].[Gd+3] [Omniscan]
[2]
  dispersion space (entire extracellular space: intravascular space and interstitium): about 20 % of the volume of the body

## COCC(=O)Nc1c(I)c(C(=O)NCC(O)CO)c(I)c(C(=O)N(C)CC(O)CO)c1I (stereo not shown) [Ultravist]
[2]
  dispersion space (entire extracellular space: intravascular space and interstitium): about 20 % of the volume of the body
